Measurements from patent US20230049549A1, “PEPTIDE COMPOUNDS AND METHODS OF TREATING DISEASES USING SAME” (Immunity Pharma Ltd., priority 2020, published 2023).
Where no end group is shown, it is not given here. [ ]: non-standard residue; d: D form. dimethylproline = dimethylproline (dMP); Aib = CC(C)(N)C(=O)O

System: BALB/c mice
Assay: Rescue from dexamethasone-induced spleen and thymus weight and cell loss in mice
Format: in vivo, mouse
Conditions: for Average: average of spleen weight, spleen cell number, thymus weight, thymus cell number, Normal = 100%, DEXA alone 47%; for Thymus Cell number: relative to Normal mice = 100% (DEXA alone 23%); for Thymus Cell number / Thymus Weight / Spleen Cell number / Spleen Weight: dexamethasone 100 μg IP, peptide 200 μg/mouse IV immediately and 24 hours after, sacrificed 48 hours; for Thymus Weight: relative to Normal mice = 100% (DEXA alone 44%); for Spleen Cell number: relative to Normal mice = 100% (DEXA alone 59%); for Spleen Weight: relative to Normal mice = 100% (DEXA alone 62%)
Experimental: Dexamethasone is a corticosteroid medication that induces apoptosis of immune cells and lymphomyeloid tissues. BALB/c mice were used to examine the ability of candidate peptides to rescue lymphocyte cells from apoptosis. Mice were injected IP with 100 μg of Dexamethasone. Dexamethasone-treated mice received immediately following and 24-hours after dexamethasone treatment IV injection of candidate peptides (200 μg peptide/mouse). Mice were sacrificed 48 hours after the first treatment. The spleen and the thymus were weighted and full cell count of both organs was performed.
Peptides used in the screen were SEQ ID NOs: 1-13. The peptide of SEQ ID NO: 42 was used as a positive control. The peptides set forth in SEQ ID NOs: 35-41 were used as negative controls.

Row | Substance | Average | Thymus Cell number | Thymus Weight | Spleen Cell number | Spleen Weight
1 | 1 (LPPL[Aib]YP) [compound 1] | 65% | 28% | 59% | 82% | 89%
2 | 2 (LPPLPY[Aib]) [compound 2] | 65% | 25% | 61% | 85% | 89%
3 | 4 ([dP]PL[Aib]Y-NH2; N-terminus assumed; SMILES CC(C)C[C@H](NC(=O)[C@@H]1CCCN1C(=O)[C@H]1CCCN1)C(=O)NC(C)(C)C(=O)N[C@@H](Cc1ccc(O)cc1)C(N)=O) [compound 4] | 61% | 31% | 55% | 82% | 77%
4 | 5 ([dL]PPH[Aib]Y-NH2; N-terminus assumed; SMILES CC(C)C[C@@H](N)C(=O)N1CCC[C@H]1C(=O)N1CCC[C@H]1C(=O)N[C@@H](Cc1c[nH]cn1)C(=O)NC(C)(C)C(=O)N[C@@H](Cc1ccc(O)cc1)C(N)=O) [compound 5] | 68% | 49% | 52% | 91% | 81%
5 | 6 (LPP[dL]PYP) [compound 6] | 58% | 23% | 48% | 80% | 80%
6 | 7 (L[dimethylproline]PLPYP) [compound 7] | 67% | 29% | 72% | 82% | 84%
7 | 8 (LPPVPYP) [compound 8] | 60% | 30% | 53% | 82% | 76%
8 | 9 (LPPSPYP) [compound 9] | 61% | 31% | 55% | 82% | 76%
9 | 10 (LPPHPYP) [compound 10] | 65% | 33% | 56% | 85% | 84%
10 | 11 ([dL]PPHPYP) [compound 11] | 68% | 49% | 52% | 91% | 81%
11 | 12 ([dL]P[Aib]LAYP) [compound 12] | 72% | 51% | 63% | 85% | 89%
12 | 13 (LP[dimethylproline]LPYP) [compound 13] | 65% | 44% | 49% | 84% | 82%
13 | 35 (LPPH[Aib]YP) [compound 35] | 52% | 39% | 42% | 65% | 62%
14 | 36 ([dL]PPH[Aib]YP) [compound 36] | 54% | 40% | 43% | 69% | 64%
15 | 37 (Ac-PPL[Aib]Y-NH2; SMILES CC(=O)N1CCC[C@H]1C(=O)N1CCC[C@H]1C(=O)N[C@@H](CC(C)C)C(=O)NC(C)(C)C(=O)N[C@@H](Cc1ccc(O)cc1)C(N)=O) [compound 37] | 55% | 24% | 48% | 77% | 69%
16 | 38 ([dL]PPL[Aib]YP) [compound 38] | 52% | 24% | 50% | 66% | 67%
17 | 39 ([dL]PPL[Aib]Y) [compound 39] | 55% | 27% | 50% | 73% | 69%
18 | 40 ([dL]PPLAY) [compound 40] | 55% | 34% | 41% | 72% | 72%
19 | 41 ([dL]PPLAY[Aib]) [compound 41] | 51% | 25% | 49% | 61% | 69%
20 | 42 (LPPLPYP) [compound 42] | 59% | 34% | 47% | 78% | 79%
